Assays:
[1] = system: Mycobacterium tuberculosis Erdman (autoluminescent); test: total FIC50 (Loewe) at 50% inhibition, three-drug combination (log2); higher = more antagonistic
Procedure: (§1)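 DiaMOND equipotent three-drug combination dose responses (10 doses, 1.5- or 2-fold spacing, centred on IC90) against autoluminescent M. tuberculosis Erdman in 8 in vitro models. Read-out is OD600, or luminescence for the intracellular and dormancy models, normalised to untreated wells. Hill-fit Einf, AUC25 and GRinf are potency metrics; FIC50 and FIC90 are total Loewe fractional inhibitory concentrations as log2 (negative = synergy).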

[2] = system: Mycobacterium tuberculosis Erdman (autoluminescent); test: total FIC90 (Loewe) at 90% inhibition, three-drug combination (log2); higher = more antagonistic
Procedure: as §1

[3] = system: Mycobacterium tuberculosis Erdman (autoluminescent); test: Einf, fitted maximum growth inhibition of three-drug combination (fraction); higher = stronger maximal inhibition
Procedure: as §1

[4] = system: Mycobacterium tuberculosis Erdman (autoluminescent); test: AUC25, normalised area under dose response up to IC25 (three-drug combination) (fraction (0-1)); higher = more potent at low dose
Procedure: as §1

[5] = system: Mycobacterium tuberculosis Erdman (autoluminescent); test: GRinf, maximum normalised growth rate inhibition (three-drug combination) (unitless (-1 to 1)); higher = less effect (negative = killing)
Procedure: as §1

NNC(=O)c1ccncc1 [isoniazid] + NC(=O)c1cnccn1 [pyrazinamide] + CO[C@H]1/C=C/O[C@@]2(C)Oc3c(C)c(O)c4c(O)c(c(/C=N/N5CCN(C)CC5)c(O)c4c3C2=O)NC(=O)/C(C)=C\C=C\[C@H](C)[C@H](O)[C@@H](C)[C@@H](O)[C@@H](C)[C@H](OC(C)=O)[C@@H]1C [rifampicin]
Conditions	AUC25, [4]	Einf, [3]	GRinf, [5]	total FIC50, [1]	total FIC90, [2]
in vitro model: acidic pH 5.7, time point: constant (~7 days, model-specific)	0.0814	0.864	-0.12	-1.79	–
in vitro model: acidic pH 5.7, time point: terminal (~4-5 doublings, model-specific)	0.0574	0.988	-0.193	-1.2	-1.75
in vitro model: intracellular J774, time point: constant = terminal	–	0.976	-0.255	–	0.327

Conditions	AUC25, [4]	Einf, [3]	GRinf, [5]	total FIC50, [1]	total FIC90, [2]
in vitro model: butyrate, time point: constant (~7 days, model-specific)	0.103	0.921	0.00703	-2.04	0.665
in vitro model: butyrate, time point: terminal (~4-5 doublings, model-specific)	0.0827	0.967	0.0033	-2.09	-2.12
in vitro model: cholesterol 0.05 mM, time point: constant (~7 days, model-specific)	0.088	0.633	-0.0371	–	–
in vitro model: cholesterol 0.05 mM, time point: terminal (~4-5 doublings, model-specific)	0.0858	0.865	-0.1	0.166	–
in vitro model: cholesterol-high 0.2 mM, time point: constant (~7 days, model-specific)	0.0657	0.91	-0.258	0.702	–
in vitro model: cholesterol-high 0.2 mM, time point: terminal (~4-5 doublings, model-specific)	0.0664	1	-0.795	1.16	0.74
in vitro model: dormancy (butyrate + nitrate, low O2), time point: constant (~7 days, model-specific)	0.0642	0.891	0.224	-2.66	-3.39
in vitro model: dormancy (butyrate + nitrate, low O2), time point: terminal (~4-5 doublings, model-specific)	0.0565	0.979	-0.0973	-3.09	-2.85
in vitro model: standard 7H9 glycerol, time point: constant = terminal	0.0763	0.917	0.0491	-5.81	–
in vitro model: valerate, time point: constant (~7 days, model-specific)	0.0587	0.86	0.0565	-2.11	–
in vitro model: valerate, time point: terminal (~4-5 doublings, model-specific)	0.0331	0.928	0.0571	-1.04	-1.36

NNC(=O)c1ccncc1 [isoniazid] + O=[N+]([O-])c1cn2c(n1)OC[C@@H](OCc1ccc(OC(F)(F)F)cc1)C2 [pretomanid] + CO[C@H]1/C=C/O[C@@]2(C)Oc3c(C)c(O)c4c(O)c(c(/C=N/N5CCN(C6CCCC6)CC5)c(O)c4c3C2=O)NC(=O)/C(C)=C\C=C\[C@H](C)[C@H](O)[C@@H](C)[C@@H](O)[C@@H](C)[C@H](OC(C)=O)[C@@H]1C [rifapentine]
Conditions	AUC25, [4]	Einf, [3]	GRinf, [5]	total FIC50, [1]	total FIC90, [2]
in vitro model: acidic pH 5.7, time point: constant (~7 days, model-specific)	0.0727	0.917	-0.193	4.53	–
in vitro model: acidic pH 5.7, time point: terminal (~4-5 doublings, model-specific)	0.0598	0.992	-0.24	4.23	4.33
in vitro model: intracellular J774, time point: constant = terminal	–	0.999	-0.647	–	0.264

Conditions	AUC25, [4]	Einf, [3]	GRinf, [5]	total FIC50, [1]	total FIC90, [2]
in vitro model: butyrate, time point: constant (~7 days, model-specific)	0.0925	0.927	-0.00998	2.86	1.02
in vitro model: butyrate, time point: terminal (~4-5 doublings, model-specific)	0.0727	0.966	0.00856	2.77	2.95
in vitro model: cholesterol 0.05 mM, time point: constant (~7 days, model-specific)	0.0995	0.687	-0.151	1.97	–
in vitro model: cholesterol 0.05 mM, time point: terminal (~4-5 doublings, model-specific)	0.0863	0.914	-0.223	2.05	0.57
in vitro model: cholesterol-high 0.2 mM, time point: constant (~7 days, model-specific)	0.0548	0.808	-0.0225	0.663	–
in vitro model: cholesterol-high 0.2 mM, time point: terminal (~4-5 doublings, model-specific)	0.0663	0.994	-0.46	0.773	0.83
in vitro model: dormancy (butyrate + nitrate, low O2), time point: constant (~7 days, model-specific)	0.0593	0.871	0.27	2.68	2.64
in vitro model: dormancy (butyrate + nitrate, low O2), time point: terminal (~4-5 doublings, model-specific)	0.0428	0.978	-0.11	2.7	2.66
in vitro model: standard 7H9 glycerol, time point: constant = terminal	0.0426	0.884	0.179	4.92	–
in vitro model: valerate, time point: constant (~7 days, model-specific)	0.102	0.894	-0.014	2.74	–
in vitro model: valerate, time point: terminal (~4-5 doublings, model-specific)	0.0549	0.938	-0.167	3.29	2.95

NNC(=O)c1ccncc1 [isoniazid] + O=[N+]([O-])c1cn2c(n1)OC[C@@H](OCc1ccc(OC(F)(F)F)cc1)C2 [pretomanid] + CO[C@H]1/C=C/O[C@@]2(C)Oc3c(C)c(O)c4c(O)c(c(/C=N/N5CCN(C)CC5)c(O)c4c3C2=O)NC(=O)/C(C)=C\C=C\[C@H](C)[C@H](O)[C@@H](C)[C@@H](O)[C@@H](C)[C@H](OC(C)=O)[C@@H]1C [rifampicin]
Conditions	AUC25, [4]	Einf, [3]	GRinf, [5]	total FIC50, [1]	total FIC90, [2]
in vitro model: acidic pH 5.7, time point: constant (~7 days, model-specific)	0.0775	0.859	-0.11	3.95	–
in vitro model: acidic pH 5.7, time point: terminal (~4-5 doublings, model-specific)	0.0694	0.984	-0.197	3.6	3.63
in vitro model: intracellular J774, time point: constant = terminal	–	0.984	-0.312	–	-0.077

Conditions	AUC25, [4]	Einf, [3]	GRinf, [5]	total FIC50, [1]	total FIC90, [2]
in vitro model: butyrate, time point: constant (~7 days, model-specific)	0.0916	0.923	0.00511	2.61	0.589
in vitro model: butyrate, time point: terminal (~4-5 doublings, model-specific)	0.0722	0.963	0.0279	2.48	2.45
in vitro model: cholesterol 0.05 mM, time point: constant (~7 days, model-specific)	0.0953	0.655	-0.0786	1.31	–
in vitro model: cholesterol 0.05 mM, time point: terminal (~4-5 doublings, model-specific)	0.0868	0.899	-0.194	1.53	0.957
in vitro model: cholesterol-high 0.2 mM, time point: constant (~7 days, model-specific)	0.0449	0.872	-0.204	0.405	–
in vitro model: cholesterol-high 0.2 mM, time point: terminal (~4-5 doublings, model-specific)	0.0391	0.977	-0.604	0.794	0.324
in vitro model: dormancy (butyrate + nitrate, low O2), time point: constant (~7 days, model-specific)	0.066	0.857	0.266	2.35	2.04
in vitro model: dormancy (butyrate + nitrate, low O2), time point: terminal (~4-5 doublings, model-specific)	0.0408	0.974	-0.0694	2.21	2.12
in vitro model: standard 7H9 glycerol, time point: constant = terminal	0.0661	0.893	0.151	5.01	3.36
in vitro model: valerate, time point: constant (~7 days, model-specific)	0.0615	0.863	0.000666	3.28	–
in vitro model: valerate, time point: terminal (~4-5 doublings, model-specific)	0.0349	0.939	0.0355	3.03	1.97
